Results reported in patent US11609178B2, “Apparatus for analysing a liquid sample comprising particles” (UNIVERSITY COURT OF THE UNIVERSITY OF ST ANDREWS, priority 2018, dated 2023).

Columns and labels:
Type in all cases: cell-based
Klebsiella = assay: Bacterial growth over time in urine samples with different antibiotics (FIG. 10); conditions: urine samples containing Klebsiella; growth curve compared with control line
Method: As a first stage a biological sample containing urine is obtained. A spinning process is applied to the sample and the sample is aliquoted or otherwise divided into wells. The samples are then incubated in an incubator. After a pre-determined time, each sample, in a sample chamber, is moved into a detection configuration with the detection apparatus. This may involve placing the sample in a cuvette into the sample chamber. This may involve sequentially moving a plurality of sample chambers into the detection configuration. More than one measurement for each sample may be performed and stored to establish growth curves, for example, those shown in FIGS. 6, 7, 8 and 10.
FIG. 10 is a plot of bacterial growth as a function of time in urine samples in the presence of different types of antibiotics. The urine samples contain a significant amount of Klebsiella resistant to meropenem and susceptible to penicillin, amoxicillin, gentamicin and ciprofloxacin. The control line is the upper most line.
The second upper most line correspond to results for a urine sample treated with meropenem. The second upper most line overlaps in part with the control line. The urine sample is thus shown to be resistant to meropenem. The other lines correspond to results for urine samples treated with ciprofloxacin, gentamicin, penicillin and amoxicillin.

[1] = system: bacterial growth of samples; assay: Detection apparatus, bacterial growth with antibiotics at EUCAST breakpoint, FIG. 8(a) / Table 1; design: key to S or R result (sensitive / resistant): S: sensitive; R: resistant; conditions: Table 1, FIG. 8(a); antibiotic at EUCAST breakpoint concentration
Method: (§1) FIG. 8(a) and FIG. 8(b) are plots showing bacterial growth of samples as a function of time in the presence of different types of antibiotics. FIGS. 8(a) and 8(b) illustrate break points for different types of antibiotics. Measurements derived using the data shown in FIGS. 8(a) and 8(b) are shown in Table 1 and Table 2, respectively.
(§2) At a fourth step, a test process is performed that includes incubation and obtaining readings. Tests will typically run for a maximum of 30 minutes.
(§3) At a fifth step, an analysis process is performed based on the readings obtained from the test process. The analysis process includes determining if the strain is sensitive or resistant to the or an antibiotic or other agent in the sample chamber based on the obtained readings. Determining whether a sample is sensitive or resistant to an antibiotic or other agent may be referred to as obtaining an S result or an R result. Determining if a sample is a S result or an R result may include comparing a reading to threshold criteria.
(§4) As a first example, if the sample fails to show a 50% inhibition, the sample will be declared R after 30 minutes. In some embodiments, the analysis process includes providing sensitivity results.

[2] = system: bacterial growth of samples; assay: Detection apparatus, bacterial growth with antibiotics at EUCAST breakpoint, FIG. 8(b) / Table 2; design: key to S or R result (sensitive / resistant): S: sensitive; R: resistant; conditions: Table 2, FIG. 8(b); antibiotic at EUCAST breakpoint concentration
Method: as §1, §2, §3, §4

[3] = system: bacterial growth of samples; assay: Reference susceptibility test (Vitek 2), sample of FIG. 8(a) / Table 1; conditions: Table 1, sample of FIG. 8(a)
Description: as §1

[4] = system: bacterial growth of samples; assay: Reference susceptibility test (Vitek 2), sample of FIG. 8(b) / Table 2; conditions: Table 2, sample of FIG. 8(b)
Description: as §1

E. coli = assay: Bacterial growth over time by light scattering at different antibiotic concentrations (FIGS. 6 and 7); conditions: from plot of detector output vs time
Description: Any suitable detection and analysis system may be used with the embodiments of FIGS. 1 to 5. In some embodiments a detection and analysis system as described in WO 2016/128747 is used. The content of WO 2016/128747 is hereby incorporated by reference. In some embodiments a light source in the form of a 635 nm wavelength laser is used (any light in the wavelength range 620-750 nm is used in some other embodiments). The laser in this embodiment is connected to a signal generator that is adapted to control a modulation frequency and phase of the laser output. The photodetector is connected to a digital phase sensitive detector (PSD). An input of an amplifier is connected to the signal generator. An output of the amplifier is connected to a digital oscilloscope 66. […]
The signal generator is arranged to modulate the output frequency of the laser source. […] The detected signal is filtered by the PSD. The PSD filters the detected signal from the photodetector. The PSD synchronizes the detected signal with the modulation applied to the light source to provide a dampening system that eliminates unwanted noise, for example, background electrical or luminous noise. The filtered signal is sent to the digital oscilloscope to be recorded. […]

Row | Compound | susceptibility of bacteria in urine sample (Klebsiella) | S or R result (sensitive / resistant) [1] | Time To Results [1] | S or R result (sensitive / resistant) [2] | Time To Results [2] | Reference (Vitek 2 result) [3] | Reference (Vitek 2 result) [4] | mode of action (E. coli) | minimum inhibitory concentration (MIC) (E. coli)
1 | CC1(C)S[C@@H]2[C@H](NC(=O)[C@H](N)c3ccc(O)cc3)C(=O)N2[C@H]1C(=O)O [Amoxicillin] | susceptible | (S) | 2.93 min | – | – | – | – | – | –
2 | CC1(C)S[C@@H]2[C@H](NC(=O)[C@H](N)c3ccccc3)C(=O)N2[C@H]1C(=O)O [Ampicillin] | – | – | – | (R) | >30 min | 8 Mg/L | >0.5 Mg/L | – | –
3 | O=C(O)c1cn(C2CC2)c2cc(N3CCNCC3)c(F)cc2c1=O [Ciprofloxacin] | susceptible | (S) | 4.4 min | (S) | 3.37 min | ≤0.25 Mg/L | 0.5 Mg/L | – | –
4 | CC[C@H]1OC(=O)[C@H](C)[C@@H](O[C@H]2C[C@@](C)(OC)[C@@H](O)[C@H](C)O2)[C@H](C)[C@@H](O[C@@H]2O[C@H](C)C[C@H](N(C)C)[C@H]2O)[C@](C)(O)C[C@@H](C)C(=O)[C@H](C)[C@@H](O)[C@]1(C)O [Erythromycin] | – | – | – | (S) | 3.3 min | – | 1 Mg/L | – | –
5 | C[C@@H](O)[C@H]1C(=O)N2C(C(=O)O)=C(S[C@@H]3CN[C@H](C(=O)N(C)C)C3)[C@H](C)[C@H]12 [Meropenem, meropenem] | resistant | (S) | 2.57 min | (S) | 2.2 min | ≤0.25 Mg/L | – | causes lysis and a reduction in scattering | –
6 | COc1c(N2C[C@@H]3CCCN[C@@H]3C2)c(F)cc2c(=O)c(C(=O)O)cn(C3CC3)c12 [Moxifloxacin] | – | – | – | – | – | ≤0.25 Mg/L | – | – | –
7 | O=C1CN(/N=C/c2ccc([N+](=O)[O-])o2)C(=O)N1 [Nitrofurantoin] | – | – | – | (S) | 3.37 min | – | 16 Mg/L | – | –
8 | COc1cc(Cc2cnc(N)nc2N)cc(OC)c1OC [Trimethoprim] | – | (S) | 0.73 min | (S) | 7.33 min | ≤0.5 Mg/L | 0.5-2 Mg/L | – | –
9 | CN[C@H](CC(C)C)C(=O)N[C@H]1C(=O)N[C@@H](CC(N)=O)C(=O)N[C@H]2C(=O)N[C@H]3C(=O)N[C@H](C(=O)N[C@H](C(=O)O)c4cc(O)cc(O)c4-c4cc3ccc4O)[C@H](O)c3ccc(c(Cl)c3)Oc3cc2cc(c3O[C@@H]2O[C@H](CO)[C@@H](O)[C@H](O)[C@H]2O[C@H]2C[C@](C)(N)[C@H](O)[C@H](C)O2)Oc2ccc(cc2Cl)[C@H]1O [Vancomycin] | – | – | – | (S) | 7.33 min | – | 1 Mg/L | – | –
10 | Augmentin (co-amox) | – | (S) | 2.2 min | (R) | >30 min | 2 Mg/L | ≤2 Mg/L | – | –
11 | gentamicin | susceptible | (S) | 0.73 min | (S) | 0.37 min | ≤1 Mg/L | 0.5-8 Mg/L | – | below 2 mg/L
12 | penicillin | susceptible | – | – | – | – | – | – | – | –
